The source of these data is paper PMC4628711, “Antiproliferative and Antiestrogenic Activities of Bonediol an Alkyl Catechol from Bonellia macrocarpa” (BioMed Research International, 2015).

In test [1] the target is T1, ERβ (estrogen receptor β) (Homo sapiens, UniProt Q92731).
T1 construct: gene ESR2
Briefly: competitive [3H]-17β-estradiol radioligand binding, in vitro translated receptor (TNT reticulocyte lysate).

For test [2], the target named is T2, ERα (estrogen receptor α) (Homo sapiens, UniProt P03372).
T2 construct: gene ESR1
T2 sequence (P03372 1-595): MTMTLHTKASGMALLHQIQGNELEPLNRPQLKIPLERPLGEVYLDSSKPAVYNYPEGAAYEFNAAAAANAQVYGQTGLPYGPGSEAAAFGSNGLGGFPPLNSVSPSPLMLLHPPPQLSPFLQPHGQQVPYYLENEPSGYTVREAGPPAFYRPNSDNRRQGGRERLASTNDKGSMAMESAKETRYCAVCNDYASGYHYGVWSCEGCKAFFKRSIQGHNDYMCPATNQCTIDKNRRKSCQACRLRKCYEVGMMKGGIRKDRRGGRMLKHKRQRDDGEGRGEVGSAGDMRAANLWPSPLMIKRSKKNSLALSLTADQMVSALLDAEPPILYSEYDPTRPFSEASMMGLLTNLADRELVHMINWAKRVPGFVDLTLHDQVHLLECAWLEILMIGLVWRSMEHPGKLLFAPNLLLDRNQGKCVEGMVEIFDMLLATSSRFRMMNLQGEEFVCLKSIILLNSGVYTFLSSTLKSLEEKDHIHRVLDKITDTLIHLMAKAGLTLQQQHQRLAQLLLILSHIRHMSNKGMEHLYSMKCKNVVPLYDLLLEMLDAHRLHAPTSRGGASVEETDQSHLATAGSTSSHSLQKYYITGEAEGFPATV
The description is as above.

A word on the IC50: it is the concentration that gives 50% inhibition. Low readings indicate greater potency in that assay, high ones weaker potency in that assay.

T1 sequence (Q92731 whole entry): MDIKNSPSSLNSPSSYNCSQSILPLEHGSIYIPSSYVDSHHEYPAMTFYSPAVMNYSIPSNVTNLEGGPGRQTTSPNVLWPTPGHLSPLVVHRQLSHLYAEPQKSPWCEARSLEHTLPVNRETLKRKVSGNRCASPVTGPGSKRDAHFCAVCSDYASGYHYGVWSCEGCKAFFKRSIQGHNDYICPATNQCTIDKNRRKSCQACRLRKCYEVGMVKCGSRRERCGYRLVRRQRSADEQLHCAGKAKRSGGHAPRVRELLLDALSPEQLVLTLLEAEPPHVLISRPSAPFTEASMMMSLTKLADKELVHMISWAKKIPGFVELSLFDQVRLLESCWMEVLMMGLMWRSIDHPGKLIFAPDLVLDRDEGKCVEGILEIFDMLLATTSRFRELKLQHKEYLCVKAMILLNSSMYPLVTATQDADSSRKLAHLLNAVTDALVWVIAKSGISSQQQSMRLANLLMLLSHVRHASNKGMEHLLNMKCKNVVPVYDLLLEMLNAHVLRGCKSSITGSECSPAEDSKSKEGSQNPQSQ

As to bonediol, the IC50 in test [1] is 2.1 µM; in test [2], 2.5 µM.
